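Where inhibition never reached the appropriate level, the endpoint shown equals the highest concentration tested. Otherwise, values were interpolated linearly from a five-concentration, 48-hour dose response in 96-well plates. At the GI50, growth is halved.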 The source made the active and inactive calls. Cut-off read from the data, not from the text of the source: active = GI50 up to about 1.1 µM and inactive = higher.
What was measured:
Assay in all cases: NCI-60 cell line screen, 48 h
Malme-3M = system: Malme-3M
OVCAR-3 = system: OVCAR-3
TK-10 = system: TK-10
SW-620 = system: SW-620
IGROV-1 = system: IGROV-1
HT-29 = system: HT-29
SK-MEL-5 = system: SK-MEL-5
NCI-H522 = system: NCI-H522
SK-OV-3 = system: SK-OV-3
HCT-15 = system: HCT-15
SF-539 = system: SF-539
OVCAR-8 = system: OVCAR-8
M14 = system: M14
XF498 = system: XF498
K562 = system: K562
SNB-19 = system: SNB-19
HOP-92 = system: HOP-92
LXFL 529 = system: LXFL 529
CCRF-CEM = system: CCRF-CEM
UACC-62 = system: UACC-62
786-0 = system: 786-0
SR = system: SR
NCI-H23 = system: NCI-H23
EKVX = system: EKVX
SK-MEL-28 = system: SK-MEL-28
KM12 = system: KM12
DLD-1 = system: DLD-1
UO-31 = system: UO-31
COLO 205 = system: COLO 205
ACHN = system: ACHN
A549 = system: A549
U-251 = system: U-251
RXF 631 = system: RXF 631
DMS-273 = system: DMS-273
OVCAR-4 = system: OVCAR-4
OVCAR-5 = system: OVCAR-5
HCC 2998 = system: HCC 2998
SK-MEL-2 = system: SK-MEL-2
KM-20L2 = system: KM-20L2
SNB-78 = system: SNB-78
RXF 393 = system: RXF 393
SF-268 = system: SF-268
SF-295 = system: SF-295
MOLT-4 = system: MOLT-4
M19-MEL = system: M19-MEL
CAKI-1 = system: CAKI-1
SN12C = system: SN12C

Question: How did the GI50 (Malme-3M) turn out when `Nc1ccc(C(=O)N/C(=C\c2ccc3c(c2)OCO3)c2nc3ccccc3s2)cc1` was run?
Answer: > 10 µM (inactive)

Question: What about the GI50 (OVCAR-3) of the same compound?
Answer: 16.9 µM (inactive)

Question: And the GI50 (TK-10)?
Answer: 19.8 µM (inactive)

Question: And the GI50 (SW-620)?
Answer: 11.5 µM (inactive)

Question: And the GI50 (IGROV-1)?
Answer: 14.6 µM (inactive)

Question: What about the GI50 (HT-29) of the same compound?
Answer: 12.6 µM (inactive)

Question: And the GI50 (SK-MEL-5)?
Answer: 13.7 µM (inactive)

Question: What about the GI50 (NCI-H522) of the same compound?
Answer: 13.8 µM (inactive)

Question: And the GI50 (SK-OV-3)?
Answer: 21.3 µM (inactive)

Question: And the GI50 (HCT-15)?
Answer: 11.3 µM

Question: And the GI50 (SF-539)?
Answer: 17.6 µM (inactive)

Question: And the GI50 (OVCAR-8)?
Answer: 14.2 µM (inactive)

Question: And the GI50 (M14)?
Answer: 11 µM (inactive)

Question: What about the GI50 (XF498) of the same compound?
Answer: 12.9 µM (inactive)

Question: And the GI50 (K562)?
Answer: 5.38 µM (inactive)

Question: What about the GI50 (SNB-19) of the same compound?
Answer: 15.2 µM (inactive)

Question: And the GI50 (HOP-92)?
Answer: 12.3 µM (inactive)

Question: What about the GI50 (LXFL 529) of the same compound?
Answer: 10.6 µM (inactive)

Question: And the GI50 (CCRF-CEM)?
Answer: 1.89 µM (inactive)

Question: What about the GI50 (UACC-62) of the same compound?
Answer: 14.4 µM (inactive)

Question: And the GI50 (786-0)?
Answer: 11.6 µM (inactive)

Question: What about the GI50 (SR) of the same compound?
Answer: 6.01 µM (inactive)

Question: What about the GI50 (NCI-H23) of the same compound?
Answer: > 10 µM (inactive)

Question: What about the GI50 (EKVX) of the same compound?
Answer: 12.9 µM (inactive)

Question: What about the GI50 (SK-MEL-28) of the same compound?
Answer: 13.2 µM (inactive)

Question: And the GI50 (KM12)?
Answer: 14.8 µM (inactive)

Question: And the GI50 (DLD-1)?
Answer: 13 µM (inactive)

Question: What about the GI50 (UO-31) of the same compound?
Answer: 15.6 µM (inactive)

Question: And the GI50 (COLO 205)?
Answer: 18.4 µM (inactive)

Question: And the GI50 (ACHN)?
Answer: 14.2 µM (inactive)

Question: And the GI50 (A549)?
Answer: 15.5 µM (inactive)

Question: What about the GI50 (U-251) of the same compound?
Answer: 13.1 µM (inactive)

Question: What about the GI50 (RXF 631) of the same compound?
Answer: 5.79 µM (inactive)

Question: And the GI50 (DMS-273)?
Answer: 16.8 µM (inactive)

Question: What about the GI50 (OVCAR-4) of the same compound?
Answer: 12.2 µM (inactive)

Question: What about the GI50 (OVCAR-5) of the same compound?
Answer: 22 µM (inactive)

Question: And the GI50 (HCC 2998)?
Answer: 14.8 µM (inactive)

Question: And the GI50 (SK-MEL-2)?
Answer: 14.8 µM (inactive)

Question: What about the GI50 (KM-20L2) of the same compound?
Answer: 14.8 µM (inactive)

Question: What about the GI50 (SNB-78) of the same compound?
Answer: 16.7 µM (inactive)

Question: And the GI50 (RXF 393)?
Answer: 14.8 µM (inactive)

Question: What about the GI50 (SF-268) of the same compound?
Answer: 11.9 µM (inactive)

Question: And the GI50 (SF-295)?
Answer: 16.7 µM (inactive)

Question: And the GI50 (MOLT-4)?
Answer: 2.79 µM (inactive)

Question: And the GI50 (M19-MEL)?
Answer: 14.9 µM (inactive)

Question: And the GI50 (CAKI-1)?
Answer: 15.9 µM (inactive)

Question: And the GI50 (SN12C)?
Answer: 13 µM (inactive)

Reference: ChEMBL document CHEMBL1201862, “PubChem BioAssay data set” (2004)
